Holding throughout (assay type): physicochemical
The nature of series [1]: Antioxidant activity assessed as ONOO- scavenging activity.
Series [2] is described as follows: Antioxidant activity assessed as DPPH free radical scavenging activity. A general note: Loss of DPPH colour is used to gauge radical scavenging.
Series [3] in a line: Antioxidant activity assessed as DPPH free radical scavenging activity using plasma treated compound.
Series [4] can be described thus: Antioxidant activity assessed as ONOO- scavenging activity using plasma treated compound.

In general, IC50 refers to the point on the concentration scale where inhibition reaches its midpoint.

On to `CC(C)(S)[C@H](N)C(=O)O`, for which, in series [1], the IC50 was 5.2 µM.

`C[C@H]1O[C@@H](O[C@H]2[C@H](Oc3cc(O)c4c(c3)O[C@H](c3ccc(O)cc3)CC4=O)O[C@H](CO)[C@@H](O)[C@@H]2O)[C@H](O)[C@@H](O)[C@@H]1O`: the IC50 in series [2] and in series [1] was more than 300 µM in each case. As to `COCO[C@H]1[C@H](O)[C@@H](O[C@@H]2O[C@H](C)[C@@H](O)[C@H](O)[C@H]2O)[C@H](Oc2cc(O)c3c(c2)O[C@@H](c2ccc(O)cc2)CC3=O)O[C@@H]1CO`, the IC50 was determined as 57.3 µM in series [2] and 4.1 µM in series [1]. For `COCO[C@H]1[C@H](O)[C@@H](O)[C@H](O[C@H]2[C@H](Oc3cc(O)c4c(c3)O[C@H](c3ccc(O)cc3)CC4=O)O[C@H](CO)[C@@H](O)[C@@H]2O)O[C@@H]1C`, in that order: 148 µM and 256 µM. On to `C[C@H]1O[C@@H](O[C@H]2[C@H](Oc3cc(O)c4c(c3)O[C@@H](c3ccc(O)cc3)CC4=O)O[C@H](CO)[C@@H](O)[C@@H]2O)[C@H](O)[C@@H](O)[C@@H]1O`, for which the IC50 was 93.8 µM in series [2] and more than 300 µM in series [1]. For the molecule `Oc1cc(O)c2c(c1)O[C@H](c1ccc(O)c(O)c1)[C@@H](O)C2` [CIANIDANOL], the IC50 in series [2] worked out at 23.9 µM.

As to `C[C@@H]1O[C@@H](O[C@H]2[C@H](Oc3cc(O)c4c(c3)O[C@H](c3ccc(O)cc3)CC4=O)O[C@H](CO)[C@@H](O)[C@@H]2O)[C@H](O)[C@H](O)[C@H]1O` [NARINGIN], the IC50 in series [3] was determined as 110 µM; in series [4], 15.6 µM.

(Values after ChEMBL document CHEMBL3397019, “Enhancement of antioxidant effects of naringin after atmospheric pressure dielectric barrier discharge plasma treatment” (Bioorg Med Chem Lett, 2015).)
